Assay results as given in patent US20200085812A1, “HEAT SHOCK PROTEIN INDUCERS AND FRONTOTEMPORAL DISORDERS” (Orphazyme A/S, priority 2017, published 2020).

Assays:
mutant VCP (mVCP) mice [1] = settings: cited from earlier work
mutant VCP (mVCP) mice [2] = assay: Immunohistochemistry of brain and spinal cord for pathology markers (TDP-43, ubiquitin, p-tau, p62, LC3, myelin, stress granule markers); format: in vivo, mouse; settings: 120 mg/kg daily orally, 4 to 14 months
Protocol: (§1) Arimoclomol treatment: Male mutant VCP (mVCP) mice were treated with Arimoclomol (120 mg/kg daily; orally in drinking water), from the start of symptom onset at 4 months, until close to end-stage at 14 months. Transgenic mice over-expressing wild-type human VCP (wt-VCP) were used as controls, and 10 male mice per group were studied; a sample size sufficient to test for statistical significance at P<0.05 in a single sex group.
(§2) Brain and spinal cords were harvested from mice in all experimental groups following transcardial perfusion with saline followed by 4% paraformaldehyde (PFA). Brain and spinal cords were then kept in 4% PFA for 12 hours before being transferred to a 30% sucrose solution. Cross-sections of brain and spinal cords were cut at 20 μm and blocked in 10% Normal Goat serum with 0.1% Triton X100 in PBS before primary antibodies were added for 1 hour at room temperature. Primary antibodies: Rabbit anti-TDP-43 [1:500], Rabbit anti-ubiquitin [1:500], mouse anti-phospho tau (AT8) [1:100], Rabbit/mouse anti-Beta-3 tubulin [1:100], mouse anti-HSP70 [1:100], Mouse anti-p62 [1:200], Rabbit anti-LC3 [1:500]Rabbit anti-Iba1 [1:100], anti neurofilament 2H3 [1:20], Synaptic vesicle protein [1:20], Fluoromyelin Red myelin stain [1:300]. Fluorescently labelled or biotinylated secondary antibodies were used 1:1000 for 2 hours at room temperature. 4′6-Diamidino-2-Phenylindole, Dihydrochloride (DAPI) was used to counterstain for nuclei in all fluorescent images. Imaging of tissue was using a standard Leica light/fluorescent microscope or a LSM 780 confocal microscope.
(§3) Fluorescent images were visualised under a Leica fluorescent microscope and analysed using Leica Application Suite software (Leica Microsystems, Germany).

HSP70 [3] = settings: treated versus untreated mVCP mice; cited from earlier work
HSP70 [4] = assay: HSP70 immunostaining of brain and spinal cord of mVCP mice; format: in vivo, mouse
Protocol: as §1, §2, §3

mutant VCP (mVCP) mice [5] = assay: TUNEL assay for apoptotic cells in brain; format: in vivo, mouse; settings: 120 mg/kg daily orally, 4 to 14 months, FIG. 9
Protocol: as §1
Apoptosis in the brain was assessed by Terminal deoxynucleotidyl transferase (TdT) dUTP Nick-End Labeling (TUNEL) assay for apoptotic cells, where nuclei containing double-stranded breaks in the DNA fluoresce green (Fluoroscein-tagged), indicating DNA degradation at the later stage of apoptosis (FIG. 9). In some mVCP mice, TUNEL-positive nuclei in small areas of layer I in the cortex were detected which were not seen in control animals, indicating brain cells undergoing apoptosis.

mutant VCP (mVCP) mice [6] = assay: Motor neuron counts and area measurements, sciatic pool of spinal cord; format: in vivo, mouse; settings: 120 mg/kg daily orally, 4 to 14 months, FIG. 2
Protocol: as §1
20 μm spinal cord sections from L3-L6 were stained with gallocyanin to visualise neurons for quantification (5 mice per group). […] 20 images of the sciatic pool regions of the spinal cord were taken per animal to measure the size distribution of motor neurons present in this area (at ×20 magnification). A minimum of 3 mice per experimental group were assessed. The soma area of motor neurons was determined by drawing around individual Nissl stained (gallocyanin) motor neuron cell bodies in cross-sectional images of L4-L5 region of the spinal cord. This was recorded using Leica Application Suite V3.8 analysis software and presented as a percentage of the total number of motor neurons per group.

mutant VCP (mVCP) mice [7] = assay: In vivo physiology of EDL muscle: motor unit counts and maximal tetanic force; set-up: species or system mouse; settings: 4 to 14 months, FIG. 1
Protocol: as §1
In vivo physiology was carried out acutely at 14 months of age on terminally anaesthetized mice to quantify the number of motor units in the extensor digitorum longus (EDL) muscle in the hindlimb of mice in all experimental groups. Briefly, Isometric contractions were elicited by stimulating the Extensor Digitorum Longus (EDL) motor nerve using pulses of 0.02 ms duration and supramaximal intensity via electrodes. Contractions were elicited by stimulation of the sciatic nerve. The number of motor units in the EDL muscles was determined by stimulating the motor nerve with stimuli of increasing intensity, resulting in stepwise increments in twitch tension because of successive recruitment of motor axons.

HSP70 [8] = assay: HSP70 immunostaining of mVCP patient iPSC-derived motor neurons; format: cell-based, human; settings: 10 μM for 24 hours, FIG. 12 B
Protocol: (§4) iPSCs were maintained on Geltrex (Life Technologies) with Essential 8 Medium media (Life Technologies), and passaged using EDTA (Life Technologies, 0.5 mM). All cell cultures were maintained at 37° C. and 5% carbon dioxide. Motor neuron (MN) differentiation was carried out using a previously published protocol (Hall et al., 2017). Briefly, iPSCs were first differentiated to neuroepithelium by plating to 100% confluency in chemically defined medium consisting of DMEM/F12 Glutamax, Neurobasal, LGlutamine, N2 supplement, non-essential amino acids, B27 supplement, […] (all from Life Technologies) and insulin (Sigma). Treatment with small molecules from day 0-7 was as follows: 1 μM Dorsomorphin (Sigma), 2 μM SB431542 (Sigma), and 3 μM CHIR99021 (Sigma). At day 8, the neuroepithelial layer was enzymatically dissociated using dispase (GIBCO, 1 mg/ml), plated onto Geltrex coated plates and next patterned for 7 days with 0.5 μM retinoic acid and 1 μM Purmorphamine. At day 14 spinal cord MN precursors were treated with 0.1 μM Purmorphamine for a further 4 days before being terminally differentiated in 0.1 μM Compound E (Sigma) to promote cell cycle exit. Cells were treated with 10 μM Arimoclomol for 24 hours following terminal differentiation and fixed in PFA for immuno-labelling.

[9] = tested on: iPSC-derived motor neurons from mVCP patients; assay: TDP-43 immunostaining of mVCP patient iPSC-derived motor neurons; format: cell-based, human; settings: 10 μM for 24 hours, FIG. 12 A
Protocol: as §4

[10] = mVCP mice treated with Arimoclomol, previously published study

[O-][n+]1cccc(/C(Cl)=N/OC[C@H](O)CN2CCCCC2)c1 [Arimoclomol, N-[2-hydroxy-3-(1-piperidinyl)-propoxy]-pyridine-1-oxide-3-carboximidoyl chloride]
maximal tetanic force of EDL muscle (mutant VCP (mVCP) mice [1]; 14 month old mVCP mice, versus wt-VCP controls, previously published study): prevented this reduction in muscle force
myofibre atrophy and degeneration (mutant VCP (mVCP) mice [1]; [10]): reduced myofibre atrophy and degeneration
protein aggregation and TDP-43 mislocalisation in skeletal muscle (mutant VCP (mVCP) mice [1]; [10]): decreased protein aggregation and TDP-43 mislocalisation
decline in grip strength relative to body weight (mutant VCP (mVCP) mice [1]; mVCP mice, 4 to 14 months of age, untreated mVCP 44.1% reduction): no significant decline in grip strength
accumulation of p62 in spinal cord (mutant VCP (mVCP) mice [2]; FIG. 5): significantly ameliorated
myelin abnormalities in spinal cord (mutant VCP (mVCP) mice [2]; FIG. 5): significantly ameliorated
increased LC3 expression in spinal cord (mutant VCP (mVCP) mice [2]; FIG. 5 D): significantly ameliorated
phosphorylated tau-positive (p-tau) extracellular aggregates/lesions in brain (mutant VCP (mVCP) mice [2]; FIG. 6): prevents the formation of these proteinaceous aggregates
TDP-43 cytoplasmic mislocalisation in brain and spinal cord (mutant VCP (mVCP) mice [2]; FIGS. 3 and 4): TDP-43 mislocalisation was reduced
ubiquitin-positive intracellular aggregates in brain and spinal cord (mutant VCP (mVCP) mice [2]; FIGS. 5 and 6): prevents the formation of these proteinaceous aggregates
expression of HSP70 in muscle (Western blot) (HSP70 [3]): two-fold
fluorescence intensity of HSP70 immunoreactivity in spinal cord (quantification) (HSP70 [4]; mVCP mice treated versus untreated, FIG. 8 B): enhanced
HSP70 expression in glial cells of spinal cord and brain (HSP70 [4]; mVCP mice, 120 mg/kg daily orally, 4 to 14 months): increased expression of HSP70
HSP70 expression in brain and spinal cord (HSP70 [4]; mVCP mice, 120 mg/kg daily orally, 4 to 14 months, versus untreated mVCP, FIGS. 7 and 8): further augmented
TUNEL-positive apoptotic cells in brain cortex (mutant VCP (mVCP) mice [5]): prevented the appearance of apoptotic cells
motor neuron survival in sciatic pool (L3-6) of spinal cord (mutant VCP (mVCP) mice [6]): reduction in motor neuron survival is prevented
shift towards smaller motor neuron soma size (mutant VCP (mVCP) mice [6]): This shift is not seen
number of motor units in EDL muscle (motor unit survival) (mutant VCP (mVCP) mice [7]; 120 mg/kg daily orally in drinking water): reduction in motor unit survival is prevented
muscle force generated by the EDL muscle (mutant VCP (mVCP) mice [7]; 120 mg/kg daily orally, versus untreated mice): significantly greater than in untreated mice
HSP70 expression (HSP70 [8]): substantially increased
cytoplasmic mislocalisation of TDP-43 [9]: ameliorated
